In US11491120B2, “Pharmacological prophylactics against stress-induced affective disorders in females” (The Trustees of Columbia University in the City of New York, priority 2017, dated 2022):

System: female 129S6/SvEv mice
Test: Forced swim test (FST), immobility time, after stress
Conditions: 1 week prophylactic drug
[1] = Forced Swim Test Day 1, Dunnett test Sal vs. drug (0.025)
[2] = Forced Swim Test Day 1, Dunnett test Sal vs. drug (0.075)

Compound: N[C@@]1(c2ccccc2Cl)CCC[C@@H](O)C1=O [(2R,6R)-HNK, (2R,6R)-hydroxynorketamine]
- p, Sal vs. drug, Dunnett test: Immobility Time (min 1-6), Forced Swim Test Day 2 (0.075 mg/kg): 0.5537
- p, Sal vs. drug, Dunnett test: Immobility Time (min 2), Forced Swim Test Day 2 (0.075 mg/kg): 0.9312
- p, Sal vs. drug, Dunnett test: Immobility Time (min 4), Forced Swim Test Day 2 (0.075 mg/kg): 0.9993
- p, Sal vs. drug, Dunnett test: Immobility Time (min 5), Forced Swim Test Day 2 (0.075 mg/kg): >0.9999
- p, Sal vs. drug, Dunnett test: Immobility Time (min 6), Forced Swim Test Day 2 (0.075 mg/kg): 0.9760
- p, Sal vs. drug, Dunnett test: Immobility Time Average (min 3-6), Forced Swim Test Day 2 (0.075 mg/kg): 0.8615
- p, Sal vs. drug, Dunnett test: Immobility Time (min 1), Forced Swim Test Day 2 (0.1 mg/kg): 0.9995
- p, Sal vs. drug, Dunnett test: Immobility Time (min 1-6), Forced Swim Test Day 2 (0.1 mg/kg): 0.9871
- p, Sal vs. drug, Dunnett test: Immobility Time (min 2), Forced Swim Test Day 2 (0.1 mg/kg): 0.2508
- p, Sal vs. drug, Dunnett test: Immobility Time (min 4), Forced Swim Test Day 2 (0.1 mg/kg): 0.9994
- p, Sal vs. drug, Dunnett test: Immobility Time (min 5), Forced Swim Test Day 2 (0.1 mg/kg): 0.8037
- p, Sal vs. drug, Dunnett test: Immobility Time (min 6), Forced Swim Test Day 2 (0.1 mg/kg): 0.8172
- p, Sal vs. drug, Dunnett test: Immobility Time Average (min 3-6), Forced Swim Test Day 2 (0.1 mg/kg): 0.9994
- p, Sal vs. drug, Dunnett test: Immobility Time (min 1), Forced Swim Test Day 2 (0.3 mg/kg): 0.9998
- p, Sal vs. drug, Dunnett test: Immobility Time (min 1-6), Forced Swim Test Day 2 (0.3 mg/kg): 0.9996
- p, Sal vs. drug, Dunnett test: Immobility Time (min 2), Forced Swim Test Day 2 (0.3 mg/kg): 0.9999
- p, Sal vs. drug, Dunnett test: Immobility Time (min 4), Forced Swim Test Day 2 (0.3 mg/kg): 0.9883
- p, Sal vs. drug, Dunnett test: Immobility Time (min 5), Forced Swim Test Day 2 (0.3 mg/kg): 0.9991
- p, Sal vs. drug, Dunnett test: Immobility Time (min 6), Forced Swim Test Day 2 (0.3 mg/kg): 0.9991
- p, Sal vs. drug, Dunnett test: Immobility Time Average (min 3-6), Forced Swim Test Day 2 (0.3 mg/kg): 0.9994
- p, Sal vs. drug, Dunnett test: Immobility Time (min 1), Forced Swim Test Day 2 (2.5 mg/kg): 0.4807
- p, Sal vs. drug, Dunnett test: Immobility Time (min 1-6), Forced Swim Test Day 2 (2.5 mg/kg): 0.6589
- p, Sal vs. drug, Dunnett test: Immobility Time (min 2), Forced Swim Test Day 2 (2.5 mg/kg): 0.9193
- p, Sal vs. drug, Dunnett test: Immobility Time (min 4), Forced Swim Test Day 2 (2.5 mg/kg): 0.9991
- p, Sal vs. drug, Dunnett test: Immobility Time (min 5), Forced Swim Test Day 2 (2.5 mg/kg): >0.9999
- p, Sal vs. drug, Dunnett test: Immobility Time (min 6), Forced Swim Test Day 2 (2.5 mg/kg): 0.9995
- p, Sal vs. drug, Dunnett test: Immobility Time Average (min 3-6), Forced Swim Test Day 2 (2.5 mg/kg): 0.9507
- p, Sal vs. drug, Dunnett test: Immobility Time (min 1), Forced Swim Test Day 2 (10 mg/kg): 0.9997
- p, Sal vs. drug, Dunnett test: Immobility Time (min 1-6), Forced Swim Test Day 2 (10 mg/kg): 0.9950
- p, Sal vs. drug, Dunnett test: Immobility Time (min 2), Forced Swim Test Day 2 (10 mg/kg): 0.9993
- p, Sal vs. drug, Dunnett test: Immobility Time (min 4), Forced Swim Test Day 2 (10 mg/kg): 0.9955
- p, Sal vs. drug, Dunnett test: Immobility Time (min 5), Forced Swim Test Day 2 (10 mg/kg): 0.9991
- p, Sal vs. drug, Dunnett test: Immobility Time (min 6), Forced Swim Test Day 2 (10 mg/kg): 0.9999
- p, Sal vs. drug, Dunnett test: Immobility Time Average (min 3-6), Forced Swim Test Day 2 (10 mg/kg): 0.9997
- * (significance), Immobility Time (min 1-6) [1]: ** (** p<0.01)
- p, Immobility Time (min 1) [1]: 0.9996
- p, Immobility Time (min 1-6) [1]: 0.0090
- p, Immobility Time (min 3) [1]: 0.9637
- p, Immobility Time (min 4) [1]: 0.8106
- p, Immobility Time (min 5) [1]: 0.8892
- p, Immobility Time (min 6) [1]: 0.6406
- p, Immobility Time Average (min 3-6) [1]: 0.7004
- * (significance), Immobility Time (min 1) [2]: ** (** p<0.01)
- p, Immobility Time (min 1) [2]: 0.0017
